Converted amounts (≈) assume the structure as drawn.
Tests used:
[1] = test system: metastatic breast cancer; assay: Evaluation of predictive biomarkers of response to Compound I in patients; assay type: in vivo, human
Description: The duration on therapy at each dose level for evaluable patients is depicted in FIG. 15. 18 patients were diagnosed with metastatic breast cancer. […] This study was conducted to evaluate predictive biomarkers of response to Compound I and to explore the relationship between germline HRD aberrations and outcomes of Compound I treatments.

[2] = test system: BRCA2 knockout tumor cells; assay: Xenograft model, BRCA2 knockout vs isogenic wild type; assay type: in vivo; conditions: BRCA2 knockout tumor cells in xenograft model compared with isogenic wild type control cells
[3] = test system: BRCA deficient cells; assay: Toxicity against BRCA deficient cells; assay type: cell-based; conditions: cell lines of different genetic backgrounds (colon, breast and ovary), mouse and human
[4] = Quick solubility analysis in pH 4.5 buffer; assay type: physicochemical; conditions: pH 4.5 buffer solution (25 mM sodium acetate, 25° C.), filtered, LC, pH changed to 5-6
Description: A quick solubility analysis was conducted on Compound I Polymorphs A and J (Table 3). Each sample was suspended in pH 4.5 buffer solution (25 mM sodium acetate, 25° C.) for 10 minutes and then filtered for LC (liquid chromatography) analysis.

[5] = Polymorphic equilibrium and transformation study in MeOH/PPW at 65° C. (XRPD); assay type: physicochemical
Description: Polymorphic equilibrium studies were performed using Compound I Polymorph A and Compound I Polymorph J. To a 3-neck 250 mL flask equipped with a 3 cm stir bar and N2 inlet, a 1:1 mixture of Compound I Polymorph A (5 g) and Compound I Polymorph J (5 g, sample shown in FIG. 1), MeOH (112.5 mL, 11.25 vol) and purified process water (PPW, 37.5 mL, 3.75 vol) were charged. The resulting mixture was stirred at room temperature for 10 min, and then heated to 65° C. and sampled at 2 hrs, 4 hrs, and 6 hrs and analyzed by XRPD analysis as shown in FIG. 7.
A polymorphic transformation study was also performed. To a 20 mL vial containing a 2 cm stir bar, Compound I Polymorph J (0.5 g, sample shown in FIG. 1), MeOH (5.6 mL, 11.25 vol) and PPW (1.9 mL, 3.75 vol) were charged. The resulting mixture was heated to 65° C. for 6 hrs. Upon completion, the slurry was filtered through a Buchner funnel, and the solid was collected for XRPD analysis as shown in FIG. 8.
As described in Example 1, Polymorph J crystals precipitated out around pH 9-10 during final pH adjustment step to pH 12-13. Polymorph J is then heated to 60° C. to 65° C. in MeOH/PPW (3:1) for approximately 4 hours and maintains its polymorphic form. Thus, substantially pure (polymorphic purity) Polymorph J in MeOH/PPW (3:1) is stable at 65° C. for at least 4 hours.

[6] = Stability test at 25° C./60% RH for 18 months (XRPD, DSC); assay type: physicochemical
Description: Further, stability of Polymorph J was analyzed in solution having the composition:
Sample Preparation: 37.5 kg of WFI was added to the compounding vessel at a temperature in the range of 15 to 30° C. Vigorously sparge WFI with nitrogen for no less than 30 minutes by placing the nitrogen sparging tubing at the bottom of the pressure vessel. Continue sparging in the vessel until dissolved oxygen content was <1 ppm. In a second pressure vessel was added 20.0 kg nitrogen sparged WFI and sucrose and mixed until dissolved while continuing nitrogen sparging, not less than 15 minutes. Nitrogen sparging continued as necessary until dissolved oxygen content was <1 ppm of the sucrose solution. To the sucrose solution, 813.8 g of 2 M HCl solution was slowly added and mixed for no less than 10 minutes after addition was complete. Add Compound I into the sucrose solution vessel and rinse container that contained Compound I with nitrogen sparged WFI. Mix solution until dissolved (no less than 15 min). Add 43.5 mL of 2 M HCl and mix for no less than 5 minutes. If solution is not visually dissolved, add another portion of 43.5 mL of 2M HCl and mix for no less than 5 minutes. Adjust pH, if necessary to 4.4-4.6 with 2M HCl or 1M NaOH solution prepared using nitrogen sparged WFI. Mix solution after each addition of 2M HCl or 1M NaOH. Adjust volume with nitrogen-sparged WFI as necessary. Pull a 10 mL sample to measure pH. If necessary, re-adjust pH to 4.4-4.6 using 2M HCl or 1M NaOH solution prepared using nitrogen sparged WFI. Filtration and filling directly proceeded this step. No material was stored overnight. […]
Aseptic filling of the sterile solution: The Compound I sterile solution was filled into 20-cc clean, de-pyrogenated glass vials, with periodic weight checks to assure that the target fill quantity (5.05 g/vial) was maintained, and the vials were semi-stoppered with sterile elastomeric closures to provide the sample for stability analysis.
The sample was stored at 25° C. in 60% relative humidity (RH) for 18 months. After 18 months, the sample was analyzed by XRPD and DSC (see FIGS. 10 and 11).

[7] = Heating of Polymorph J without solvent at 205° C.; assay type: physicochemical; conditions: 30 minutes
[8] = Polymorph conversion on heating in MeOH/PPW (3:1) under neutral conditions; assay type: physicochemical; conditions: about 60-65° C., 6 hours instead of 4
Description: In the procedure discussed in Example 1, the wet cake obtained in the Neutralization/Polymorph Formation step was vacuum dried at no more than 65° C. Then the dried Compound I (dried wet cake) was dissolved in DCM/MeOH (3/1, v/v) and purified on silica gel column eluting with DCM/MeOH (3/1, v/v). The fractions containing Compound I was collected and passed through an in-line filter. Then Compound I was precipitated from DCM/MeOH via solvent-swap with MeOH (under vacuum with the jacket temperature of no more than 30C). After the DCM was distilled off, Compound I in MeOH was filtered and the wet cake was washed with methanol. The wet cake was vacuum dried at no more than 65° C. Then the dried Compound I, which existed in Polymorph E, was stirred in MeOH/PPW (3:1) and heated at about 60° C. to about 65° C. for 4 hours. Then the temperature was cooled down to 20° C. to 30° C. and stirred at that temperature for no longer than 1 hour. […] In the final heating step, if the mixture is heated for 6 hours instead of 4 hours, Polymorph A was observed.
It is believed that Polymorph K was transformed from Polymorph E under neutral conditions. […] Thus, without bound to be any theory, Polymorph K is believe to be a metastable form between Polymorphs E and A.

Compound: Cc1cnc(CNC(=O)c2c(=O)c3ccc(N4CCCN(C)CC4)nc3n3c2sc2ccccc23)cn1 [Compound I, 2-(4-Methyl-[1,4]diazepan-1-yl)-5-oxo-5H-7-thia-1,11b-diaza-benzo[c]fluorene-6-carboxylic acid (5-methyl-pyrazin-2-ylmethyl)-amide]
- Response to treatment ([1]; patient with PALB2 mutation and BRCA2 mutation, 650 mg/m^2 on Day 1, Day 8, Day 15 of a 28 day cycle): partial response (PR)
- Tumor shrinkage ([1]; patients with BRCA2 mutation, dose greater than or equal to 150 mg/m^2): tumor shrinkage were observed
- Therapeutic index of activity [2]: wide therapeutic index of activity
- Toxicity against BRCA deficient cells [3]: specific toxicity against BRCA deficient cells

Compound: Cc1cnc(CNC(=O)c2c(=O)c3ccc(N4CCCN(C)CC4)nc3n3c2sc2ccccc23)cn1 [Polymorph A, 2-(4-Methyl-[1,4]diazepan-1-yl)-5-oxo-5H-7-thia-1,11b-diaza-benzo[c]fluorene-6-carboxylic acid (5-methyl-pyrazin-2-ylmethyl)-amide]
- solubility at 10 min ([4]; sodium acetate buffer, 25 °C, pH 4.5, aqueous buffer, thermodynamic from solid): 29.3 mg/mL (≈ 57 mM)
- Relative thermodynamic stability of polymorphs ([5]; MeOH/PPW, 65° C.): more thermodynamically stable than Polymorph J

Compound: Cc1cnc(CNC(=O)c2c(=O)c3ccc(N4CCCN(C)CC4)nc3n3c2sc2ccccc23)cn1 [Polymorph J, 2-(4-Methyl-[1,4]diazepan-1-yl)-5-oxo-5H-7-thia-1,11b-diaza-benzo[c]fluorene-6-carboxylic acid (5-methyl-pyrazin-2-ylmethyl)-amide]
- Solubility ([4]; 10 minutes): 28.6 mg/mL (≈ 55.7 mM)
- Time stable on storage [6]: at least 18 months
- Shift of second endothermic DSC peak after storage versus initial sample ([6]; 18 months): about 5 °C
- XRPD pattern after storage ([6]; 18 months): substantially similar to the XRPD pattern of the initial sample
- Polymorphic form by XRPD after heating ([5]; MeOH/PPW, 65° C., 6 hrs): converted to Polymorph A
- Time polymorphic form is stable ([5]; substantially pure Polymorph J in MeOH/PPW (3:1) at 65° C.): at least 4 hours
- Crystallinity by XRPD after heating [7]: less crystalline

Compound: Cc1cnc(CNC(=O)c2c(=O)c3ccc(N4CCCN(C)CC4)nc3n3c2sc2ccccc23)cn1 [Polymorph K, 2-(4-Methyl-[1,4]diazepan-1-yl)-5-oxo-5H-7-thia-1,11b-diaza-benzo[c]fluorene-6-carboxylic acid (5-methyl-pyrazin-2-ylmethyl)-amide]
- Polymorphic conversion upon prolonged heating [8]: converts to Polymorph A

From patent publication US20210046082A1, “CRYSTALLINE FORMS OF QUINOLINE ANALOGS AND SALTS THEREOF, COMPOSITIONS, AND THEIR METHODS FOR USE” (Senhwa Biosciences, Inc., priority 2019, published 2021)
